Test [1] deals with T1, TNKS2 (Homo sapiens, UniProt Q9H2K2).
T1 construct: GST-tagged Tnks-2 (873-1166 aa, prepared in-house); made in house
Kind of test: TNKS2 activity ELISA (autoparsylation assay). It counts as biochemical. To be noted: GST-tagged Tnks-2 (873-1166 aa); read-out: IC50 [M] TNKS2 ELISA. An outline of the steps: (§1)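 Autoparsylation ELISA: biotinylated NAD serves as co-substrate for plate-bound GST-TNKS1/TNKS2, incubated with test compounds. Readout is HRP luminescence after streptavidin-HRP binding, referenced to the no-inhibitor reaction, from which IC50 values are derived.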
A general note: In an ELISA, binding on a coated surface is turned into a signal by an enzyme label.

The target in test [2] is T2, PARP-1 (Homo sapiens, UniProt P09874).
T2 construct: purchased Enzo Life Sciences GmbH, Lörrach, Germany
T2 sequence (P09874 whole entry): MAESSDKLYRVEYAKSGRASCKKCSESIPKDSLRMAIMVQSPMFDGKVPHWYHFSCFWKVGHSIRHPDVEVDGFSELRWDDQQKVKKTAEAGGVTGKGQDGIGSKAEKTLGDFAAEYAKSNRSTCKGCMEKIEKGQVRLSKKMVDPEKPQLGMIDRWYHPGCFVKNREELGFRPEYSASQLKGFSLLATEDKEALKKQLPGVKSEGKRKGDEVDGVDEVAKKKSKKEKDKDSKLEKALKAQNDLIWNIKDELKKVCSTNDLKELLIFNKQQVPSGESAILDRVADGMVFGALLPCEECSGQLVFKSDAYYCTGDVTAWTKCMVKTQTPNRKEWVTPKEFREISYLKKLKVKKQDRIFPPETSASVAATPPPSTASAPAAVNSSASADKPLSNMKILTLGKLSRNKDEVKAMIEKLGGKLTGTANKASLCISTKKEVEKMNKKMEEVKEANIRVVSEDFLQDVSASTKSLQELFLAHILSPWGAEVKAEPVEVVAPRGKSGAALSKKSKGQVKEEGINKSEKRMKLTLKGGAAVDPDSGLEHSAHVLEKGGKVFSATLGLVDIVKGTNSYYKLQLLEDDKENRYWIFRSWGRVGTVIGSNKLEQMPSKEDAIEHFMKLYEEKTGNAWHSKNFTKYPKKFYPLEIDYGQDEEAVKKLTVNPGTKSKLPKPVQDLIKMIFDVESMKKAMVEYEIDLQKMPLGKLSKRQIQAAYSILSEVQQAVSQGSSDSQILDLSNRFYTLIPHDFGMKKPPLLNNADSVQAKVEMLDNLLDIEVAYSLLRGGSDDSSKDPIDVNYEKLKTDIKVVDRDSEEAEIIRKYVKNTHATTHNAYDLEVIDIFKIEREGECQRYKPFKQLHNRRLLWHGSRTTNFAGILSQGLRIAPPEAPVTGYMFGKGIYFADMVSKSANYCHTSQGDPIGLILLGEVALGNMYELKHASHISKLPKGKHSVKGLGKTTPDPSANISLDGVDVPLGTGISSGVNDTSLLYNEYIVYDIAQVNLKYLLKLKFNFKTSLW
Put plainly: PARP-1 autoparsylation assay (HTRF). It counts as biochemical. To be noted: His-tagged Parp-1, autoparsylation HTRF. An outline of the steps: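 HTRF emission ratio reports biotin-ADP-ribose self-transfer onto His-tagged PARP-1, with biotinylated NAD/NAD as co-substrate, sensed via cryptate anti-His and Xlent-streptavidin.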
(In general: In TR-FRET formats the signal depends on donor and acceptor labels being close together.)

The test system of test [3] is Tankyrases. The following applies: read-out: EC50 [M] TNKS cellular assay; DLD1 cells, 24 hours, Axin2 increase.
For test [4], the target named is T3, TNKS1 (Homo sapiens, UniProt O95271).
T3 construct: GST-tagged Tnks-1 (1023-1327 aa, prepared in-house); made in house
T3 sequence (O95271 1023-1327): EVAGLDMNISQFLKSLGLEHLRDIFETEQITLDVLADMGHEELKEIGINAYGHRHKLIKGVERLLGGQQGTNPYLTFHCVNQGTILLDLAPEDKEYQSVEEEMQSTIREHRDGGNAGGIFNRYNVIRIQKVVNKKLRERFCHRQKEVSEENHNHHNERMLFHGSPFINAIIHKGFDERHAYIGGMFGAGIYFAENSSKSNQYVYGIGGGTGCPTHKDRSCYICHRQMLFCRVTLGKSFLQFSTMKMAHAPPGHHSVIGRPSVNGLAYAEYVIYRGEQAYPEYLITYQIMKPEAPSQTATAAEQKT
Put plainly: TNKS1 activity ELISA (autoparsylation assay). It counts as biochemical. The following applies: GST-tagged Tnks-1 (1023-1327 aa). In short, it runs like this:
as §1

The values that follow come from patent publication US9809598B2 (Merck Patent GmbH, priority 2014, dated 2017).

One may read the IC50 as the point on the concentration scale where inhibition reaches its midpoint. As usually defined, the EC50 is the concentration that produces a half-maximal response.

T1 sequence (Q9H2K2 873-1166): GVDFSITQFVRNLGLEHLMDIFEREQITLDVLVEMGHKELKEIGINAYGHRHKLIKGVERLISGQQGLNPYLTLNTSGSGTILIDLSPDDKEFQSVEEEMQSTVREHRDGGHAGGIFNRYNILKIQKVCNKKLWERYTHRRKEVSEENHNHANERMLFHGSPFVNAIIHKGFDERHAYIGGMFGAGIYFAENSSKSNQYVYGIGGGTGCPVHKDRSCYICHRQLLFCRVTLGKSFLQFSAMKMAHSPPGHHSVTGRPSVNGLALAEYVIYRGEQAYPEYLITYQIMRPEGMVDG

`Cc1cc2c(=O)[nH]c(CCCC(=O)N3CCC(Oc4ccc(C#N)cc4)CC3)nn2c1` [Compound C163, 4-{1-[4-(6-Methyl-4-oxo-3,4-dihydro-pyrrolo[2,1-f][1,2,4]triazin-2-yl)-butyryl]-piperidin-4-yloxy}-benzonitrile]: the IC50 in test [1] amounted to 2.5e-08 M; in test [2] it was 1300 nM; in test [4], 21 nM. In addition, the EC50 in test [3] was found to be 2e-07 M.

Turning to `Cc1cc2c(=O)[nH]c(CCCC(=O)N3CCC(C(=O)c4ccc(F)cc4)CC3)nn2c1` [Compound C164, 2-{4-[4-(4-Fluoro-benzoyl)-piperidin-1-yl]-4-oxo-butyl}-6-methyl-3H-pyrrolo[2,1-f][1,2,4]triazin-4-one], the IC50 is 2.8e-09 M in test [1], 2200 nM in test [2] and 0.79 nM in test [4]. Besides, in test [3], the EC50 worked out at 2.5e-08 M.

As to `COc1ccc(C(=O)C2CCN(C(=O)CCCc3nn4cc(C)cc4c(=O)[nH]3)CC2)cc1C` [Compound C165, 2-{4-[4-(4-Methoxy-3-methyl-benzoyl)-piperidin-1-yl]-4-oxo-butyl}-6-methyl-3H-pyrrolo[2,1-f][1,2,4]triazin-4-one], the results for the half-maximal inhibitory concentration (IC50) in test [1], in test [2] and in test [4] were 2.2e-10 M, 2100 nM and 0.22 nM, respectively. Moreover, the EC50 in test [3] was 1.7e-09 M.

With `Cc1cc2c(=O)[nH]c(CCCC(=O)N3CCC(C(=O)c4ccc(C(C)(C)O)cc4)CC3)nn2c1` [Compound C166, 2-(4-{4-[4-(1-Hydroxy-1-methyl-ethyl)-benzoyl]-piperidin-1-yl}-4-oxo-butyl)-6-methyl-3H-pyrrolo[2,1-f][1,2,4]triazin-4-one], the IC50 worked out at 1.7e-08 M in test [1], 1400 nM in test [2] and 12 nM in test [4]. Also, the EC50 in test [3] came out at 1.8e-07 M.

Take `Cc1cc2c(=O)[nH]c(CCCC(=O)N3CCC(C(=O)c4cnn(C)c4)CC3)nn2c1` [Compound C168, 6-Methyl-2-{4-[4-(1-methyl-1H-pyrazole-4-carbonyl)-piperidin-1-yl]-4-oxo-butyl}-3H-pyrrolo[2,1-f][1,2,4]triazin-4-one]: the values for the IC50 in test [1], in test [2] and in test [4] were 3.5e-09 M, 5800 nM and 1 nM, respectively. Also, the EC50 in test [3] came out at 3.4e-08 M.

For the compound `COc1ccc(C(=O)C2CCN(C(=O)CCCc3nn4cc(F)cc4c(=O)[nH]3)CC2)cc1F` [Compound C169, 6-Fluoro-2-{4-[4-(3-fluoro-4-methoxy-benzoyl)-piperidin-1-yl]-4-oxo-butyl}-3H-pyrrolo[2,1-f][1,2,4]triazin-4-one], the IC50 in test [1] came to 2.2e-10 M; in test [2], 2200 nM; in test [4] it was 0.17 nM. For the same compound, in test [3], the EC50 worked out at 2.5e-09 M.

Turning to `COc1ccc(C(=O)C2CCN(C(=O)CCCc3nn4cc(F)cc4c(=O)[nH]3)CC2)cn1` [Compound C170, 6-Fluoro-2-{4-[4-(6-methoxy-pyridine-3-carbonyl)-piperidin-1-yl]-4-oxo-butyl}-3H-pyrrolo[2,1-f][1,2,4]triazin-4-one], the IC50 turned out to be 9.9e-10 M in test [1], 2800 nM in test [2] and 0.67 nM in test [4]. In addition, in test [3], the EC50 turned out to be 1.9e-08 M.

For `N#Cc1cc(C2CCN(C(=O)CCCc3nn4cc(F)cc4c(=O)[nH]3)CC2)cnc1N` [Compound C171, 6-Amino-1′-[4-(6-fluoro-4-oxo-3,4-dihydro-pyrrolo[2,1-f][1,2,4]triazin-2-yl)-butyryl]-1′,2′,3′,4′,5′,6′-hexahydro-[3,4′]bipyridinyl-5-carbonitrile], the IC50 in test [1] is 3.6e-09 M; in test [2], 6300 nM; in test [4] it was 1.7 nM. Besides, the EC50 in test [3] was found to be 4.6e-08 M.

Regarding `Nc1ncc(C2CCN(C(=O)CCCc3nn4cc(F)cc4c(=O)[nH]3)CC2)cc1-c1ncccn1` [Compound C172, 2-[4-(6-Amino-5-pyrimidin-2-yl-3′,4′,5′,6′-tetrahydro-2′H-[3,4′]bipyridinyl-1′-yl)-4-oxo-butyl]-6-fluoro-3H-pyrrolo[2,1-f][1,2,4]triazin-4-one], the results for the IC50 in test [1], in test [2] and in test [4] were 5.3e-10 M, 2500 nM and 0.61 nM, respectively. Moreover, the EC50 in test [3] worked out at 6.8e-09 M.

Regarding `O=C(CCCc1nn2cc(F)cc2c(=O)[nH]1)N1CCC(c2nnc(-c3ccccc3)o2)CC1` [Compound C173, 6-Fluoro-2-{4-oxo-4-[4-(5-phenyl-[1,3,4]oxadiazol-2-yl)-piperidin-1-yl]-butyl}-3H-pyrrolo[2,1-f][1,2,4]triazin-4-one], the IC50 in test [1] was 1.4e-08 M; in test [2], 3200 nM; in test [4] it was 15 nM. The EC50 in test [3] came out at 8.5e-08 M.

Take `N#Cc1ccc(OC2CCN(C(=O)CCCc3nn4cc(F)cc4c(=O)[nH]3)CC2)cc1` [Compound C174, 4-{1-[4-(6-Fluoro-4-oxo-3,4-dihydro-pyrrolo[2,1-f][1,2,4]triazin-2-yl)-butyryl]-piperidin-4-yloxy}-benzonitrile]: the IC50 in test [1] was 4.9e-08 M; in test [2], 270 nM; in test [4], 64 nM. Also, the EC50 in test [3] was 7.8e-07 M.

Regarding `O=C(c1ccc(F)cc1)C1CCN(C(=O)CCCc2nn3cc(F)cc3c(=O)[nH]2)CC1` [Compound C175, 6-Fluoro-2-{4-[4-(4-fluoro-benzoyl)-piperidin-1-yl]-4-oxo-butyl}-3H-pyrrolo[2,1-f][1,2,4]triazin-4-one], the IC50 was 8.1e-10 M in test [1], 4900 nM in test [2] and 0.47 nM in test [4]. Moreover, the EC50 in test [3] was 3.7e-08 M.

In the case of `CC(C)(O)c1ccc(C(=O)C2CCN(C(=O)CCCc3nn4cc(F)cc4c(=O)[nH]3)CC2)cc1` [Compound C177, 6-Fluoro-2-(4-{4-[4-(1-hydroxy-1-methyl-ethyl)-benzoyl]-piperidin-1-yl}-4-oxo-butyl)-3H-pyrrolo[2,1-f][1,2,4]triazin-4-one], the values for the IC50 in test [1], in test [2] and in test [4] were 4.8e-09 M, 8000 nM and 7.1 nM, respectively. For the same compound, in test [3], the EC50 came to 6.7e-08 M.

On to `COc1ccc(C(=O)C2CCN(C(=O)CCCc3nc4c(ccn4C)c(=O)[nH]3)CC2)cc1F` [Compound C180, 2-{4-[4-(3-Fluoro-4-methoxy-benzoyl)-piperidin-1-yl]-4-oxo-butyl}-7-methyl-3,7-dihydro-pyrrolo[2,3-d]pyrimidin-4-one], for which the values for the 50% inhibitory concentration (IC50) in test [1], in test [2] and in test [4] were under 1e-10 M, 1900 nM and 0.18 nM, respectively. The EC50 in test [3] stood at 3.3e-09 M.

With `COc1ccc(C(=O)C2CCN(C(=O)CCCc3nc4c(ccn4C)c(=O)[nH]3)CC2)cn1` [Compound C181, 2-{4-[4-(6-Methoxy-pyridine-3-carbonyl)-piperidin-1-yl]-4-oxo-butyl}-7-methyl-3,7-dihydro-pyrrolo[2,3-d]pyrimidin-4-one], the IC50 is 2.4e-10 M in test [1], 2300 nM in test [2] and 0.65 nM in test [4]. In addition, the concentration giving a half-maximal response (EC50) in test [3] was 7.3e-09 M.

As for `Cn1ccc2c(=O)[nH]c(CCCC(=O)N3CCC(c4cnc(N)c(C#N)c4)CC3)nc21` [Compound C182, 6-Amino-1′-[4-(7-methyl-4-oxo-4,7-dihydro-3H-pyrrolo[2,3-d]pyrimidin-2-yl)-butyryl]-1′,2′,3′,4′,5′,6′-hexahydro-[3,4′]bipyridinyl-5-carbonitrile], the results for the IC50 in test [1], in test [2] and in test [4] were 6.5e-10 M, 1500 nM and 1.3 nM, respectively. In addition, the EC50 in test [3] turned out to be 2.4e-07 M.
